Data reported in patent US20190099259A1, “Method for Treatment and Prevention of Biofilm Formation During Breast Augmentation Procedures” (Integrated Healing Technologies, LLC, priority 2017, published 2019).

Key:
R. pickettii biofilm = test: biofilm assay on silicone breast implants; format: cell-based, Ralstonia Pickettii
Description: Biofilm assays were performed after 2 to 3 mL of 10^5 CFU/mL bacterial inoculum was added to each tube containing the respective implants and placed into a shaking incubator (250-300 rpm) at 30° C. for 24 hours, allowing for formation of biofilm on implants. After 24 hours' incubation, the implants having the biofilm were rinsed twice with Butterfields phosphate buffer. After the rinses, the implants were aseptically transferred to tubes containing 5 mL test articles for contact time points; 5 min and 2 hours. Postincubation, the implants were rinsed twice with Butterfields phosphate buffer, placed in 5 mL of sterile neutralizing buffer and sonicated at 50 to 60 Hz for 5 minutes. Tenfold serial dilutions were performed for each sample tube using neutralizing buffer as the diluent. A total of 100 μL of appropriate dilutions of each sample were plated on a nutrient agar plate in duplicates and incubated overnight. The colonies were counted postincubation. Data were evaluated by comparing the difference in CFU/mL for the implants and blank control at 5 min and 2 hours.

[1] = system: microbial cells and spore; details: cited from earlier work

In the case of `OCl` [Hypochlorous acid, hypochlorous acid], the “effect in the biofilm model” value (R. pickettii biofilm; general statement) is given as “effective at reducing Ralstonia Pickettii bacterial numbers” and the “potency as a germicide versus equivalent molar ratio of hypochlorite anion” value [1] is given as 80-100 times.

In the case of `[H]/N=C(\N/C(=N/[H])NCCCCCCNC(=N)NC(=N)Nc1ccc(Cl)cc1)Nc1ccc(Cl)cc1` [Chlorhexidine gluconate], the antibiofilm activity (R. pickettii biofilm; Biocell implant, 5 minutes) is reported as “did not have antibiofilm activity”, the antibiofilm activity (R. pickettii biofilm; Biocell implant, 2 hours) is reported as “did not have antibiofilm activity” and the antibiofilm activity (R. pickettii biofilm; Siltex implant, 5 minutes) is reported as “did not have antibiofilm activity”. For the same compound, the antibiofilm activity (R. pickettii biofilm; Siltex implant, 2 hours) was “did not have antibiofilm activity”, the “penetration of established biofilm” value (R. pickettii biofilm; after two hours) was “unable to penetrate established biofilm” and the antibiofilm activity (R. pickettii biofilm; smooth implant, 5 minutes) was “limited reduction”. For the same compound, the antibiofilm activity (R. pickettii biofilm; smooth implant, 2 hours) was “complete eradication”.
